Carcinogen call data for 9 molecules are collected here from PubChem BioAssay AID1259411 (Chemical Carcinogenesis Research Information System (CCRIS), 2018).

Calls of active or inactive are those of the source. The rule behind the calls is not given here.

For the series, the system named is rodent carcinogenicity bioassays, tumor incidence. Description: CCRIS carcinogenicity studies. The gist of the method:
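Archive of carcinogenicity, mutagenicity, tumor promotion and tumor inhibition results drawn from journals, NCI reports and other sources, expert-reviewed; covers 1985-2011 and is no longer updated.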

As for `O=[N+]([O-])C1=Cc2cccc3cccc(c23)O1`, the carcinogen call (Species: RAT, Strain/Sex: WISTAR/MALE, Route: SUBCUTANEOUS, Dose: 0, 0.5 MG IN DMSO 1/WK FOR DURATION OF STUDY (TOTAL DOSE: 0; 19.5 MG) (STUDY DURATION: 271 D), Dose: 0, 0.5 MG IN DMSO 1/WK FOR DURATION OF STUDY (TOTAL DOSE: 0; 19.5 MG) (STUDY DURATION: 271 D), Tumor Site: Type of Lesion: INJECTION SITE: FIBROSARCOMA) is “active; positive”.

Consider `CCCCCCCCCCCCCC(=O)O[C@@H]1[C@@H](C)[C@@]2(O)[C@@H](C=C(CO)C[C@]3(O)C(=O)C(C)=C[C@@H]23)[C@@H]2C(C)(C)[C@]12OC(C)=O`, for which the carcinogen call reads like this: (Species: MOUSE, Strain/Sex: BALB/MALE, FEMALE, Route: DERMAL, Dose: 0, 18 NMOL IN ACETONE 1/WK FOR 17 MO (STUDY DURATION: 24 MO), Tumor Site: Type of Lesion: SKIN: SQUAMOUS CELL PAPILLOMA) “active; positive”; (Species: MOUSE, Strain/Sex: HR-HR/MALE, FEMALE, Route: DERMAL, Dose: 0, 18 NMOL IN ACETONE 1/WK FOR 18 MO (STUDY DURATION: 24 MO)) “inactive; negative”; (Species: MOUSE, Strain/Sex: HR/HR/MALE, FEMALE, Route: DERMAL, Dose: 0, 20, 40, 100, 1000, 1200, 1394 NMOL TOTAL DOSE WITH RESPECTIVE ADMINISTRATIONS OF 20 NMOL ONCE, 2 NMOL TWICE, 20 NMOL, Dose: 0, 20, 40, 100, 1000, 1200, 1394 NMOL TOTAL DOSE WITH RESPECTIVE ADMINISTRATIONS OF 20 NMOL ONCE, 2 NMOL TWICE, 20 NMOL, Tumor Site: Type of Lesion: SKIN: TUMOR) “active; positive”.

For `CN(C)N`, the carcinogen call is “inactive; negative” (Species: HAMSTER, Strain/Sex: SYRIAN/FEMALE, Route: SUBCUTANEOUS, Dose: 0, 8, 17, 35 MG/KG BW IN 0.9% SALINE 1/WK FOR LIFE (STUDY DURATION: LIFE SPAN), Dose: 0, 8, 17, 35 MG/KG BW IN 0.9% SALINE 1/WK FOR LIFE (STUDY DURATION: LIFE SPAN)); “inactive; negative” (Species: HAMSTER, Strain/Sex: SYRIAN/MALE, Route: SUBCUTANEOUS, Dose: 0, 8, 17, 35 MG/KG BW IN 0.9% SALINE 1/WK FOR LIFE (STUDY DURATION: LIFE SPAN), Dose: 0, 8, 17, 35 MG/KG BW IN 0.9% SALINE 1/WK FOR LIFE (STUDY DURATION: LIFE SPAN)); “active; positive” (Species: MOUSE, Route: ORAL, Tumor Site: Type of Lesion: LUNG, BLOOD VESSELS, LIVER, KIDNEY, Tumor Site: Type of Lesion: LUNG, BLOOD VESSELS, LIVER, KIDNEY).

As to `O=[N+]([O-])c1ccc2c(c1)-c1ccc([N+](=O)[O-])c3cccc-2c13`, the carcinogen call was “active; positive” (Species: RAT, Strain/Sex: F344/DUCRJ/MALE, Route: PULMONARY IMPLANT, Dose: 0, 0.05, 0.1, 0.2 MG AS A SUSPENSION IN EQUAL VOL OF BEESWAX AND TRICAPRYLIN IMPLANTED IN LEFT LUNG (STUDY DURATION: 70, Dose: 0, 0.05, 0.1, 0.2 MG AS A SUSPENSION IN EQUAL VOL OF BEESWAX AND TRICAPRYLIN IMPLANTED IN LEFT LUNG (STUDY DURATION: 70, Tumor Site: Type of Lesion: LUNG: TUMOR); “active; positive” (Species: RAT, Strain/Sex: F344/MALE, Route: LUNG IMPLANT, Dose: 0, 50, 100, 200 UG IN BEESWAX/TRICAPRYLIN INTO LOWER LEFT LUNG ONCE (STUDY DURATION: 100 WK), Dose: 0, 50, 100, 200 UG IN BEESWAX/TRICAPRYLIN INTO LOWER LEFT LUNG ONCE (STUDY DURATION: 100 WK), Tumor Site: Type of Lesion: LUNG: SQUAMOUS CELL CARCINOMA, ADENOSQUAMOUS CARCINOMA, TUMOR); “active; positive” (Species: RAT, Strain/Sex: F344/MALE, Route: PULMONARY IMPLANT, Dose: 0, 50, 100, 200 UG IN 50 µL BEESWAX/TRICAPRYLIN IMPLANTED FOR UP TO 100 WK (STUDY DURATION: 100 WK), Dose: 0, 50, 100, 200 UG IN 50 µL BEESWAX/TRICAPRYLIN IMPLANTED FOR UP TO 100 WK (STUDY DURATION: 100 WK), Tumor Site: Type of Lesion: LUNG: TUMOR).

Consider `CCC(=O)N(O)c1ccc(-c2ccccc2)cc1`, for which the carcinogen call (Species: RAT, Strain/Sex: STRAIN-CD/FEMALE, Route: INTRAPERITONEAL, Dose: 0, 100 UMOL/KG BW 2/WK FOR 6 WK (STUDY DURATION: 62 WK)) is “inactive; negative”.

Take `FC(F)Cl`: the carcinogen call (Species: MOUSE, Strain/Sex: SWISS/FEMALE, Route: INHALATION, Dose: 0, 1000, 5000 PPM 4 HR/D 5 D/WK FOR 78 WK (STUDY DURATION: LIFETIME), Dose: 0, 1000, 5000 PPM 4 HR/D 5 D/WK FOR 78 WK (STUDY DURATION: LIFETIME)) was “inactive; negative”; the carcinogen call (Species: MOUSE, Strain/Sex: SWISS/MALE, Route: INHALATION, Dose: 0, 1000, 5000 PPM 4 HR/D 5 D/WK FOR 78 WK (STUDY DURATION: LIFETIME), Dose: 0, 1000, 5000 PPM 4 HR/D 5 D/WK FOR 78 WK (STUDY DURATION: LIFETIME)) is “inactive; negative”; the carcinogen call (Species: RAT, Strain/Sex: SPRAGUE-DAWLEY/FEMALE, Route: INHALATION, Dose: 0, 1000, 5000 PPM 4 HR/D 5 D/WK FOR 104 WK (STUDY DURATION: LIFETIME), Dose: 0, 1000, 5000 PPM 4 HR/D 5 D/WK FOR 104 WK (STUDY DURATION: LIFETIME)) is “inactive; negative”; the carcinogen call (Species: RAT, Strain/Sex: SPRAGUE-DAWLEY/FEMALE, Route: INHALATION, Dose: 0, 1000, 5000 PPM IN AIR 4 HR/D 5 D/WK FOR 104 WK (STUDY DURATION: LIFETIME), Dose: 0, 1000, 5000 PPM IN AIR 4 HR/D 5 D/WK FOR 104 WK (STUDY DURATION: LIFETIME), Tumor Site: Type of Lesion: [BRAIN WAS ONLY SITE EVALUATED]) is “inactive; negative”; the carcinogen call (Species: RAT, Strain/Sex: SPRAGUE-DAWLEY/MALE, Route: INHALATION, Dose: 0, 1000, 5000 PPM 4 HR/D 5 D/WK FOR 104 WK (STUDY DURATION: LIFETIME), Dose: 0, 1000, 5000 PPM 4 HR/D 5 D/WK FOR 104 WK (STUDY DURATION: LIFETIME)) is “inactive; negative”; the carcinogen call (Species: RAT, Strain/Sex: SPRAGUE-DAWLEY/MALE, Route: INHALATION, Dose: 0, 1000, 5000 PPM IN AIR 4 HR/D 5 D/WK FOR 104 WK (STUDY DURATION: LIFETIME), Dose: 0, 1000, 5000 PPM IN AIR 4 HR/D 5 D/WK FOR 104 WK (STUDY DURATION: LIFETIME), Tumor Site: Type of Lesion: [BRAIN WAS ONLY SITE EVALUATED]) was “inactive; negative”.

Consider `C[C@H]1[C@H](c2ccc(Cl)cc2)SC(=O)N1C(=O)NC1CCCCC1`, for which the carcinogen call was “inactive; negative” (Species: Rat, Strain/Sex: Fischer 344/Female (70/Group), Route: Oral, Dose: 0, 60, 430, 3000 ppm in diet for 24 mo, study duration 24 mo, Dose: 0, 60, 430, 3000 ppm in diet for 24 mo, study duration 24 mo) and “active; positive. (department of pesticides regulation reviewer describes as possible ad” (Species: Rat, Strain/Sex: Fischer 344/Male (70/Group), Route: Oral, Dose: 0, 60, 430, 3000 ppm in diet for 24 mo, study duration 24 mo, Dose: 0, 60, 430, 3000 ppm in diet for 24 mo, study duration 24 mo, Tumor Site: Type of Lesion: Mammary gland: fibroadenoma (0, 1, 2, 6)).

`CC1CN(N=O)CCO1` (centres undefined): the carcinogen call (Species: HAMSTER, Strain/Sex: SYRIAN/MALE, Route: INTRAGASTRIC, Dose: 0, 27 MG/ML IN 0.2 ML STERILIZED WATER 1/WK FOR 30 WK (TOTAL DOSE 162 MG) (STUDY DURATION: LIFESPAN), Tumor Site: Type of Lesion: LIVER: HEMANGIOSARCOMA, NASAL CAVITY: CARCINOMA, LUNG: CARCINOMA, ADENOMA, FORESTOMACH: PAPILLOMA, TRACHEA: ADENOMA, Tumor Site: Type of Lesion: LIVER: HEMANGIOSARCOMA, NASAL CAVITY: CARCINOMA, LUNG: CARCINOMA, ADENOMA, FORESTOMACH: PAPILLOMA, TRACHEA: ADENOMA) was “active; positive”.

Regarding `Clc1ccccc1Cl`, the carcinogen call is “inactive; negative” (Species: MOUSE, Strain/Sex: B6C3F1/FEMALE, Route: GAVAGE, Dose: 0, 60, 120 MG/KG BODY WT IN CORN OIL 5 D/WK FOR 103 WK, Dose: 0, 60, 120 MG/KG BODY WT IN CORN OIL 5 D/WK FOR 103 WK); “inactive; negative” (Species: MOUSE, Strain/Sex: B6C3F1/MALE, Route: GAVAGE, Dose: 0, 60, 120 MG/KG BODY WT IN CORN OIL 5 D/WK FOR 103 WK, Dose: 0, 60, 120 MG/KG BODY WT IN CORN OIL 5 D/WK FOR 103 WK); “inactive; negative” (Species: RAT, Strain/Sex: F344/FEMALE, Route: GAVAGE, Dose: 0, 60, 120 MG/KG BODY WT IN CORN OIL 5 D/WK FOR 103 WK, Dose: 0, 60, 120 MG/KG BODY WT IN CORN OIL 5 D/WK FOR 103 WK); “inactive; negative” (Species: RAT, Strain/Sex: F344/MALE, Route: GAVAGE, Dose: 0, 60, 120 MG/KG BODY WT IN CORN OIL 5 D/WK FOR 103 WK, Dose: 0, 60, 120 MG/KG BODY WT IN CORN OIL 5 D/WK FOR 103 WK).
